# In patent US20260285924A1, “PEPTIDE THERAPEUTICS” (priority 2023, published 2026):
# Entries after “also recorded” stand apart in the source; their conditions may differ.
# Experiments:
# A375-WT [1] = test: Pan-Cancer PepTile/PiTile fitness screen (lentiviral 40-mer peptide library, NGS abundance); format: cell-based, human; design: key: enrichment of each peptide's NGS abundance, early day vs Day 14; conditions: Pan-Cancer library, peptide enrichment day 14 vs day 0
# Excerpt: FIGS. 13A-13D show Pan-Cancer PiTile Workflow. (A) The Pan-Cancer peptide library is composed of 1081 proteins tiled into 40-mer peptides at every 6 amino acids of the parental protein. The DNA-encoded library is cloned into lentiviral vectors and packaged into lentivirus. (B) A375 cell line was transduced with the Pan-Cancer PiTile library. Genomic DNA was then harvested at Day2 and Day 14 post-transduction and cell populations abundance expressing the different peptides were quantified using Next-Generation Sequencing (NGS). Peptide fitness score was then calculated by the abundance of each peptide at Day2 versus Day 14. Then the fitness signal is mapped over the original amino acid positions of the derived protein. (C) Coverage of the plasmid Pan-Cancer library and peptide-amplicons from Day2 and Day 14 replicated was determined by NGS. (D) Dot plot of the experimental result obtain from screening the Pan-Cancer library in A375 cell line.
# (§1) A peptide tilling screen was performed in A375 similarly to a screen done in MDA-MB-231 (FIG. 1) but with a different lentiviral library. The library (Pan-Cancer library) is composed of 1020 genes tiled every 6 amino acids into 40-mer amino acid long peptides. The gene selection was based on their implication in oncogenesis either being as oncogenes or tumor suppressors. The list was built using recent literature that identified new cancer drivers as well as databases such as Uniprot keywords (KW-0656: Proto-oncogene, KW-0043: Tumor suppressor), and Gene Ontology terms (GO1900117: Apoptosis, GO1901979: Cell cycle checkpoint) (FIG. 2). Aside from Human genes, a list of viral genes was also included (KW-1121: Modulation of host cell cycle by virus) that play roles in high jacking cell cycle progression and thus in oncogenesis (FIG. 2).
# (§2) The model of study is melanoma, and this disease is stratified into 4 molecular subtypes, BRAF mutants, NRAS mutants, KIT amplification, NF1 mutations (FIG. 3A). The most prominent mutations found in patient affected with metastatic melanomas are BRAF^V600E and NRAS^Q61K (FIG. 3B). RAS play a key role in oncogenesis and resistance to treatments. Indeed, RAS activating mutations is found in ~20% of all human cancers and secondary NRAS mutation leads to acquired resistance to BRAF targeted therapy such as vemurafenib. Thus, the screen was performed in an A375 cell line model which derived from human BRAF^V600E melanoma as well as an engineered A375 transduced with HA-NRAS^Q61K (FIG. 4A, B). Both cell lines grow at a similar rate but the A375-NRAS^Q61K display more than 10-fold resistance to vemurafenib treatment compared to parental A375 (FIG. 4C, D).
# (§3) These cells were transduced with the Pan-Cancer library at a low multiplicity of infection (MOI=0.1-0.3). Then, genomic DNA was extracted at day 0 and day 14 post-transduction to quantify the abundance of peptide for each temporal conditions using Next-generation sequencing. Each experimental replicates were deep sequenced with at least 150 million reads and show a coverage between 82-90% of the initial Pan-Cancer Peptide library (FIG. 5). Then, for each individual peptides a cellular fitness score was calculated based on their enrichment between day 0 and day 14. 8090 peptides negatively affecting growth of A375-WT were identified and 8153 peptides for the A375-NRAS^Q61K cell line (FIG. 6). […] Those common hits are found to be tiles from ~100 genes of the Pan-Cancer gene list and show a substantial biological function clustering.
# We built a DNA-encoded peptide library composed of all known Human oncogenes and Tumor Suppressors that we fragmented in 40 amino acid long peptides, the Pan-Cancer library. Using lentiviral expression system, we transduced the Pan-Cancer library in A375 cell line. After 14 days of growth, the frequency of each peptide is measured by NGS and this reveal which peptides affect cell fitness. […]
# A375-NRAS^Q61K [2] = test: Pan-Cancer PepTile fitness screen (lentiviral 40-mer peptide library, NGS abundance); format: cell-based, human; conditions: peptide enrichment day 14 vs day 0
# Procedure: as §1, §2, §3
# A375-WT [3] = test: Validation assay: cell growth (CCK8, 48 hours after plating) of cells transduced with single peptide tiles; format: cell-based, human; conditions: peptide overexpression
# Procedure: (§4) FIGS. 9A-9C. (A) Fitness screen validation assay workflow. (B) Validation assay results (C) Fitness screen results.
# (§5) FIGS. 14A-14E show PiTiles derived from DNA-binding domains of MYC and SOX17 inhibit transcriptional program. (A) Experimental workflow of A375 cell line individually transduced with lentivirus expressing GFP_147, MYC_384 or SOX17_96. 5 days post-transductions, RNA was harvested for RNA sequencing. Additionally, cells were plated for a 48-hour growth assay. (B) Cell growth of A375 cell line expressing GFP_147 (control), MYC_384 and SOX17_96. […] Red bar=FDR<0.05. We observe a negative peak in bHLHzip domain of MYC as well as HMG box domain of SOX17. Both domains mediated binding to DNA. (D) Principal Component Analysis of RNA-sequencing for both biological replicates of GFP_147, MYC_384 and SOX17_96 expressing cell lines. (E) A375 RNAseq data was analyzed using Gene Set Enrichment Analysis. For MYC_384 versus GFP_147 over ODONNEL_TARGET_OF_MYC_and_TFRC. For SOX17_96 versus GFP_147 over PRANMOOJAGO_SOX4.
# (§6) All those selected hits mapped to a known protein domain with known roles in protein-protein interaction or protein-DNA interaction. […] When the fold change of every tile on the protein amino acid positions was mapped, functional regions of the protein affecting cell growth were identified. For example, on RAF1, peaks corresponding to the Ras-binding domain (RBD) were identified, and the kinase domain (FIG. 8A). […] In addition, a region of MYC that affect cell growth was identified and mapped on the DNA binding domain bHLH (FIG. 8). […] To validate the results from the screen, A375-WT and -NRAS^Q61K were transduced with GFP_147, or RAF1_78, MYC_384, or KIT_499, or SOS_120 tiles and cell growth measured using CCK8 assay
# (§7) 48 hours after plating (FIG. 9A). […] The CR2 domain of BRAF contain a 14-3-3 binding site and play a role in BRAF-MEK autoinhibitory complex which regulates MAPK pathway activation. One of the goals of this contextual PepTile screen was to identify peptides that would impair growth of NRAS cell line but not the parental, to address overall NRAS-driven drug resistance. For instance, more than 6000 peptide hits were detected that are exclusive to A375-NRAS^Q61K (FIG. 6). For example, ARHGAP20 and ARHGAP26 show a very different PepTile profiles between A375-NRAS^Q61K and A375-WT (FIG. 11) and seem to have more of an effect in the A375-NRAS^Q61K condition. Altogether, the Pan-Cancer PepTile screen show the potential of finding new potential peptides to target NRAS melanoma, as well as mapping protein domains involved in cellular growth in a given context.
# A375-NRAS^Q61K [4] = test: as above; format: cell-based, human; conditions: peptide overexpression
# Excerpt: as §4, §6, §7
# [5] = tested on: MYC transcriptional program (ODONNEL_TARGET_OF_MYC_and_TFRC); test: RNA-sequencing GSEA of A375 expressing MYC_384 versus GFP_147; format: cell-based, human; conditions: 5 days post-transduction
# Procedure: as §5
# MDA-MB-231 = conditions: cited from earlier work
# [6] = tested on: SOX17 transcriptional program (PRANMOOJAGO_SOX4); test: RNA-sequencing GSEA of A375 expressing SOX17_96 versus GFP_147; format: cell-based, human; conditions: 5 days post-transduction
# Procedure: as §5
Substance,A375-WT Fitness Score (A375-WT [1]),A375-NRAS Fitness Score (A375-NRAS^Q61K [2]),cell growth compared to GFP_147 (A375-WT [3]),cell growth compared to GFP_147 (A375-NRAS^Q61K [4]),cell growth compared to GFP_147 (A375-WT [3]; listed as MYC_384),GSEA of MYC transcriptional program [5],hit in previous screen (MDA-MB-231),GSEA of SOX17 transcriptional program [6]
"KIT_84: 40-mer peptide tile of KIT, AA start position 498, Transmembrane domain (GKTSAYFNFAFKGNNKEQIHPHTLFTPLLIGFVIVAGMMC; UniProt P10721 498-537, looked up, fragment)",−3.23,−0.77,decreases cell growth,much less affected,–,–,–,–
"MYC_65: 40-mer peptide tile of MYC, AA start position 384, bHLH domain (ELKRSFFALRDQIPELENNEKAPKVVILKKATAYILSVQA; UniProt P01106 384-423, looked up, fragment)",−2.50,−0.47,–,not affected,cell growth defect; also recorded: decreases cell growth,downregulation of their respective transcriptional programs,identified and validated,–
"RAF1_14: 40-mer peptide tile of RAF1, AA start position 78, RBD (LHDCLMKALKVRGLQPECCAVFRLLHEHKGKKARLDWNTD; UniProt P04049 78-117, looked up, fragment)",−1.79,−0.50,decreases cell growth,much less affected,–,–,identified and validated,–
"SOS1_21: 40-mer peptide tile of SOS1, AA start position 120, HF domain",−2.56,−0.81,decreases cell growth,not affected,–,–,–,–
"SOX17_17: 40-mer peptide tile of SOX17, AA start position 96, HMG box",−4.49,−0.77,cell growth defect,–,–,–,–,downregulation of their respective transcriptional programs
